The record followed here is patent publication US20240287070A1, “FUSED HETEROCYCLIC DERIVATIVES” (Janssen Sciences Ireland Unlimited Company, priority 2021, published 2024).

One data set concerns HepG2 or HepG2.117 cells. Description: Cytotoxicity, ATPlite Luminescence Assay. Type of data set: cell-based, human. The note with it: 3-days incubation unless marked with *. The procedure, abridged: (§1)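 Incubate with compound for 3 or 4 days, then assess cell viability via ATPlite luminescence.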
On the technique in general: ATP-based viability assays read luminescence as a measure of living cells.

Data set [1] deals with HBV (HepG2.117 cell line, inducibly HBV producing). Nature of the data set: Anti-HBV activity, intracellular HBV DNA by real-time PCR in HepG2.117 cell line. In kind it is cell-based, hepatitis B virus. Conditions: HepG2.117 cells, 3 days of treatment. In short, it runs like this: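 Antiviral effect is expressed through intracellular HBV DNA levels, determined by real-time PCR with a virus-specific probe. These levels were measured after 3 days of treatment with compound dilutions, in HepG2.117 cells induced to replicate HBV.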
On the technique in general: In qPCR the cycle at which signal appears reflects the starting amount.

Data set [2] in a line: Human liver microsome stability. In kind it is in vitro ADME. The note with it: for half-life at 1 μM: pooled human liver microsomes, pH 7.4, pooled human liver microsomes 0.5 mg/mL, read-out: HLM Metabolism t1/2. In short, it runs like this: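 Half-life came from elimination rate constant (negative slope of ln compound/internal standard area ratio over time), measured by cassette LC-MS after acetonitrile quench. Human liver microsome reactions, one replicate per compound, were initiated with NADPH (1 mM final) and sampled at six points up to 60 min.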
(Liver microsomes are vesicles of endoplasmic reticulum, rich in cytochrome P450 enzymes.)

The nature of data set [3]: Cytotoxicity, ATPlite Luminescence Assay. Type of data set: cell-based, human. Conditions: human, HepG2 or HepG2.117 cells, 3-days incubation unless marked with *. In short, it runs like this:
as §1

[4] abbreviates: pooled human liver microsomes 0.5 mg/mL, 1 μM compound, NADPH 1 mM, 37° C., 0-60 min.
Where [5] appears, read: human, 1 μM compound, NADPH 1 mM, 37° C., 0-60 min.
Setting [6] is: Hepatitis B virus, HepG2.117, 72 h.

What is called CC50 is the concentration giving 50% cytotoxicity. By EC50 is commonly meant the midpoint of the concentration-response curve. Higher therefore signals weaker potency. `C[C@@H]1Cc2nn3c(c2CN1C(=O)c1ccc(Cl)c(C#N)c1)C(=O)N([C@@H](C)c1ccc(OC(F)F)cc1)C[C@H]3C` (relative stereo) [Compound 1D, 2-Chloro-5-((3R,7R*)-9-((S*)-1-(4-(difluoromethoxy)phenyl)ethyl)-3,7-dimethyl-O-oxo-1,2,3,4,7,8,9,10-octahydropyrido[4′,3′:3,4]pyrazolo[1,5-a]pyrazine-2-carbonyl)benzonitrile] yielded a CC50 in the data set on HepG2 or HepG2.117 cells of over 50 µM. Besides, the EC50 in data set [1] amounted to 0.021 µM. Also, the “HLM Metabolism t1/2” value in data set [2] (human, microsomes) is over 3 h.

For the compound `C[C@@H]1Cc2nn3c(c2CN1C(=O)c1ccc(Cl)c(C(F)(F)F)c1)C(=O)N([C@H](C)c1ccc([S@@](C)(=O)=NC#N)cc1)C[C@H]3C` (relative stereo) [Compound 20A, N—((R*)-(4-((R*)-1-((3R,7R)-2-(4-chloro-3-(trifluoromethyl)benzoyl)-3,7-dimethyl-10-oxo-1,3,4,7,8,10-hexahydropyrido[4′,3′:3,4]pyrazolo[1,5-a]pyrazin-9(2H)-yl)ethyl)phenyl)(methyl)(oxo)-16-sulfaneylidene)cyanamide], the CC50 with HepG2 or HepG2.117 cells was over 50 µM. Also, the response in data set [1] was half-maximal at 0.041 µM (EC50). Further, the “HLM Metabolism t1/2” value in data set [2] (setting [4]) is over 3 h.

`C[C@@H]1Cc2nn3c(c2CN1C(=O)c1ccc(Cl)c(C(F)(F)F)c1)C(=O)N([C@H](C)c1ccc([S@](C)(=O)=NC#N)cc1)C[C@H]3C` (relative stereo) [Compound 20B, N—((S*)-(4-((R*)-1-((3R,7R)-2-(4-chloro-3-(trifluoromethyl)benzoyl)-3,7-dimethyl-10-oxo-1,3,4,7,8,10-hexahydropyrido[4′,3′:3,4]pyrazolo[1,5-a]pyrazin-9(2H)-yl)ethyl)phenyl)(methyl)(oxo)-16-sulfaneylidene)cyanamide] had a CC50 in the data set on HepG2 or HepG2.117 cells of over 50 µM. It took 0.089 µM to reach a half-maximal effect in data set [1] (EC50). Also, the “HLM Metabolism t1/2” value in data set [2] (setting [4]) came out at 2.6 h.

Turning to `C[C@@H]1Cc2nn3c(c2CN1C(=O)c1ccc(Cl)c(C(F)(F)F)c1)C(=O)N([C@@H](C)c1ccc([S@@](C)(=O)=NC#N)cc1)C[C@H]3C` (relative stereo) [Compound 20C, N—((R*)-(4-((S*)-1-((3R,7R)-2-(4-chloro-3-(trifluoromethyl)benzoyl)-3,7-dimethyl-10-oxo-1,3,4,7,8,10-hexahydropyrido[4′,3′:3,4]pyrazolo[1,5-a]pyrazin-9(2H)-yl)ethyl)phenyl)(methyl)(oxo)-16-sulfaneylidene)cyanamide], in the data set on HepG2 or HepG2.117 cells, the CC50 is over 50 µM. In addition, the EC50 in data set [1] turned out to be 0.016 µM. Moreover, the “HLM Metabolism t1/2” value in data set [2] (setting [4]) worked out at 1.02 h.

On to `C[C@@H]1Cc2nn3c(c2CN1C(=O)c1ccc(Cl)c(C(F)(F)F)c1)C(=O)N([C@@H](C)c1ccc([S@](C)(=O)=NC#N)cc1)C[C@H]3C` (relative stereo) [Compound 20D, N—((S*)-(4-((S*)-1-((3R,7R)-2-(4-chloro-3-(trifluoromethyl)benzoyl)-3,7-dimethyl-10-oxo-1,3,4,7,8,10-hexahydropyrido[4′,3′:3,4]pyrazolo[1,5-a]pyrazin-9(2H)-yl)ethyl)phenyl)(methyl)(oxo)-16-sulfaneylidene)cyanamide], for which the CC50 in the data set on HepG2 or HepG2.117 cells is over 50 µM. In data set [1], this compound displayed an EC50 of 0.032 µM. In data set [2] (setting [4]), the “HLM Metabolism t1/2” value worked out at 1.47 h.

In the data set with HepG2 or HepG2.117 cells, `Cc1ncnn1-c1ccc(C(C)N2C[C@@H](C)n3nc4c(c3C2=O)CN(C(=O)c2ccc(Cl)c(Cl)c2)[C@H](C)C4)cn1` (relative stereo) [Compound 25A, (3R,7R)-2-(3,4-dichlorobenzoyl)-3,7-dimethyl-9-((R*)-1-(6-(5-methyl-11H-1,2,4-triazol-1-yl)pyridin-3-yl)ethyl)-1,2,3,4,8,9-hexahydropyrido[4′,3′:3,4]pyrazolo[1,5-a]pyrazin-10(7H)-one] yielded a CC50 of over 50 µM. The same compound returned an EC50 in data set [1] of 0.23 µM. Further, in data set [2] (setting [4]), the “HLM Metabolism t1/2” value was over 3 h.

Consider `C[C@@H]1Cc2nn3c(c2CN1C(=O)c1ccc(Cl)c(C(F)(F)F)c1)C(=O)N([C@H](C)c1ccc([S@@]2(=O)=NCCC2)nc1)C[C@H]3C` (relative stereo) [Compound 30A, (3R,7R)-2-(4-chloro-3-(trifluoromethyl)benzoyl)-3,7-dimethyl-9-((R*)-1-(6-((R*)-1-oxido-4,5-dihydro-3H-116-isothiazol-1-yl)pyridin-3-yl)ethyl)-1,2,3,4,8,9-hexahydropyrido[4′,3′:3,4]pyrazolo[1,5-a]pyrazin-10(7H)-one], for which the CC50 in the data set on HepG2 or HepG2.117 cells is over 50 µM. Moreover, in data set [1], the EC50 was determined as 0.14 µM. Besides, in data set [2] (setting [4]), the “HLM Metabolism t1/2” value is 0.495 h.

Regarding `C[C@@H]1Cc2nn3c(c2CN1C(=O)c1ccc(Cl)c(C(F)(F)F)c1)C(=O)N([C@@H](C)c1ccc([S@@]2(=O)=NCCC2)nc1)C[C@H]3C` (relative stereo) [Compound 30B, (3R,7R)-2-(4-chloro-3-(trifluoromethyl)benzoyl)-3,7-dimethyl-9-((S*)-1-(6-((R*)-1-oxido-4,5-dihydro-3H-116-isothiazol-1-yl)pyridin-3-yl)ethyl)-1,2,3,4,8,9-hexahydropyrido[4′,3′:3,4]pyrazolo[1,5-a]pyrazin-10(7H)-one], the CC50 in the data set on HepG2 or HepG2.117 cells was over 50 µM. In data set [1], this compound returned an EC50 of 0.074 µM. Also, the “HLM Metabolism t1/2” value in data set [2] (setting [4]) turned out to be 0.315 h.

`C[C@@H]1Cc2nn3c(c2CN1C(=O)c1ccc(Cl)c(C(F)(F)F)c1)C(=O)N([C@H](C)c1ccc([S@]2(=O)=NCCC2)nc1)C[C@H]3C` (relative stereo) [Compound 30C, (3R,7R)-2-(4-chloro-3-(trifluoromethyl)benzoyl)-3,7-dimethyl-9-((R*)-1-(6-((S*)-1-oxido-4,5-dihydro-3H-116-isothiazol-1-yl)pyridin-3-yl)ethyl)-1,2,3,4,8,9-hexahydropyrido[4′,3′:3,4]pyrazolo[1,5-a]pyrazin-10(7H)-one] came in with a CC50 with HepG2 or HepG2.117 cells of over 50 µM. Moreover, the EC50 in data set [1] amounted to 0.31 µM. Besides, the “HLM Metabolism t1/2” value in data set [2] (setting [4]) amounted to 0.685 h.

In data set [3], `CC(c1ccc(C(C)(C)O)nc1)N1C[C@@H](C)n2nc3c(c2C1=O)CN(C(=O)c1ccc(Cl)c(C(F)(F)F)n1)[C@H](C)C3` (single isomer, unassigned) [Compound 62A, (3R,7R)-2-(5-chloro-6-(trifluoromethyl)picolinoyl)-9-((R*)-1-(6-(2-hydroxypropan-2-yl)pyridin-3-yl)ethyl)-3,7-dimethyl-1,2,3,4,8,9-hexahydropyrido[4′,3′:3,4]pyrazolo[1,5-a]pyrazin-10(7H)-one] yielded a 50% cytotoxic concentration (CC50) at 3 days of over 50 µM. This compound displayed an EC50 in data set [1] of 0.61 µM. In addition, the half-life at 1 μM in data set [2] (setting [5]) was over 3 h.

With `CC(c1ccc(C(C)(C)O)nc1)N1C[C@@H](C)n2nc3c(c2C1=O)CN(C(=O)c1ccc(Cl)c(C#N)c1)[C@H](C)C3` (single isomer, unassigned) [Compound 63A, 2-chloro-5-((3R,7R)-9-((R*)-1-(6-(2-hydroxypropan-2-yl)pyridin-3-yl)ethyl)-3,7-dimethyl-10-oxo-1,2,3,4,7,8,9,10-octahydropyrido[4′,3′:3,4]pyrazolo[1,5-a]pyrazine-2-carbonyl)benzonitrile], the CC50 at 3 days in data set [3] is over 50 µM. The compound also came in with an EC50 in data set [1] of 0.38 µM. Moreover, the half-life at 1 μM in data set [2] (setting [5]) is over 3 h.

Compound `CC(c1ccn(CC(C)(C)O)c(=O)c1)N1C[C@@H](C)n2nc3c(c2C1=O)CN(C(=O)c1ccc(Cl)c(C(F)(F)F)c1)[C@H](C)C3` (single isomer, unassigned) [Compound 64A, (3R,7R)-2-(4-chloro-3-(trifluoromethyl)benzoyl)-9-((R*)-1-(1-(2-hydroxy-2-methylpropyl)-2-oxo-1,2-dihydropyridin-4-yl)ethyl)-3,7-dimethyl-1,2,3,4,8,9-hexahydropyrido[4′,3′:3,4]pyrazolo[1,5-a]pyrazin-10(7H)-one] displayed a CC50 at 3 days in data set [3] of over 50 µM. Also, in data set [1], the EC50 is 0.039 µM. Also, the half-life at 1 μM in data set [2] (setting [5]) is 1.82 h.

In turn, `CC(c1ccccn1)N1C[C@@H](C)n2nc3c(c2C1=O)CN(C(=O)c1ccc(Cl)c(Cl)c1)[C@H](C)C3` (single isomer, unassigned) [Compound 65A, (3R,7R)-2-(3,4-dichlorobenzoyl)-3,7-dimethyl-9-((R*)-1-(pyridin-2-yl)ethyl)-1,2,3,4,8,9-hexahydropyrido[4′,3′:3,4]pyrazolo[1,5-a]pyrazin-10(7H)-one] returned a CC50 at 3 days in data set [3] of over 50 µM. Further, the response in data set [1] (setting [6]) was half-maximal at 0.034 µM (EC50). Moreover, in data set [2] (setting [5]), the half-life at 1 μM was found to be 2.53 h.

In data set [3], `CC(c1ccc(C#N)cc1)N1C[C@@H](C)n2nc3c(c2C1=O)CN(C(=O)c1ccc(Cl)c(Cl)c1)[C@H](C)C3` (single isomer, unassigned) [Compound 66A, 4-((R*)-1-((3R,7R)-2-(3,4-dichlorobenzoyl)-3,7-dimethyl-10-oxo-1,3,4,7,8,10-hexahydropyrido[4′,3′:3,4]pyrazolo[1,5-a]pyrazin-9(2H)-yl)ethyl)benzonitrile] came in with a CC50 at 3 days of over 26.2 µM. This compound also registered an EC50 in data set [1] of 0.037 µM. Moreover, the half-life at 1 μM in data set [2] (setting [5]) was over 3 h.

`C[C@@H]1Cc2nn3c(c2CN1C(=O)c1ccc(Cl)c(C#N)c1)C(=O)N([C@H](C)c1ccc(OC(F)F)cc1)CC3` [Ref 1, reference compound] had a cytotoxic concentration (CC50) at 3 days in data set [3] of over 12.5 µM. Further, in data set [1] (setting [6]), the EC50 was 0.095 µM. In data set [2] (setting [5]), the half-life at 1 μM was 0.583 h.

Turning to `C[C@@H]1Cc2nn3c(c2CN1C(=O)c1ccc(Cl)c(C#N)c1)C(=O)N([C@@H](C)c1ccc(OC(F)F)cc1)CC3` [Ref 2, reference compound], the CC50 at 3 days in data set [3] was over 50 µM. In data set [1] (setting [6]), the EC50 turned out to be 0.03 µM. In data set [2] (setting [5]), the half-life at 1 μM is 0.63 h.
